Results as given in ChEMBL document CHEMBL4507291 (2021).

Columns and labels:
[1] = system: Fibroblast growth factor receptor 3 (Homo sapiens), P22607 [G697C]
[2] = molecular target: Serine/threonine-protein kinase 32B (Homo sapiens) (UniProt Q9NY57)
[3] = molecular target: Mitogen-activated protein kinase 6 (Homo sapiens) (UniProt Q16659)
[4] = molecular target: Mitogen-activated protein kinase 14 (Homo sapiens) (UniProt Q16539)
[5] = system: Epidermal growth factor receptor (Homo sapiens), P00533 [UNDEFINED MUTATION]
[6] = system: Proto-oncogene tyrosine-protein kinase receptor Ret (Homo sapiens), P07949 [V804L]
[7] = molecular target: T1, Serine/threonine-protein kinase D2 (Homo sapiens) (UniProt Q9BZL6)
T1 sequence (whole entry): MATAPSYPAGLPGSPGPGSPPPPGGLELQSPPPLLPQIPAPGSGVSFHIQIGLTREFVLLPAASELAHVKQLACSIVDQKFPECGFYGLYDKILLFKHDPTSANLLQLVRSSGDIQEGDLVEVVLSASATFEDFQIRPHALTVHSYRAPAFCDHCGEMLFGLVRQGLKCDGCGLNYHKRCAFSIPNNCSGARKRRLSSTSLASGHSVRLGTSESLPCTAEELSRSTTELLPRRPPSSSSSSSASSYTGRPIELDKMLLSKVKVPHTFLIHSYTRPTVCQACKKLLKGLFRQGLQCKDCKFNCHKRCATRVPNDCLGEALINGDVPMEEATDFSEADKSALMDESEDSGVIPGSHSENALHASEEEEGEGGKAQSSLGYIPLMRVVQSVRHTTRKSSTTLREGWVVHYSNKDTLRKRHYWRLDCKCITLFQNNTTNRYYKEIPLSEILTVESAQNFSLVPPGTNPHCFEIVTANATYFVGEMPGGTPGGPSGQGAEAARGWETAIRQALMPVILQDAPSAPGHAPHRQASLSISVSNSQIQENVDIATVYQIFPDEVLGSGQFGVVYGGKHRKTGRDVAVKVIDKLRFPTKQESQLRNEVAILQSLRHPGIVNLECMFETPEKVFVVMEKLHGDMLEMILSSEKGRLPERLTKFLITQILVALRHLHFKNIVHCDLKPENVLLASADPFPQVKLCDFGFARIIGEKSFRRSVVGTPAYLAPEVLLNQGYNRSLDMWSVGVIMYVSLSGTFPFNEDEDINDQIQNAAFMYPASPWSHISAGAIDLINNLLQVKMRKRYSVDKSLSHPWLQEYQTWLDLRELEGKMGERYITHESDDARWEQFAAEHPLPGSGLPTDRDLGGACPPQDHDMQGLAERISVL

[8] = molecular target: Mitogen-activated protein kinase kinase kinase 11 (Homo sapiens) (UniProt Q16584)
[9] = molecular target: Casein kinase I isoform alpha-like (Homo sapiens) (UniProt Q8N752)
[10] = system: Phosphatidylinositol 4,5-bisphosphate 3-kinase catalytic subunit alpha isoform (Homo sapiens), P42336 [E545A]
[11] = system: Tyrosine-protein kinase ABL1 (Homo sapiens), P00519 [Y253F]
[12] = molecular target: Insulin-like growth factor 1 receptor (Homo sapiens) (UniProt P08069)
[13] = system: Phosphatidylinositol 4,5-bisphosphate 3-kinase catalytic subunit alpha isoform (Homo sapiens), P42336 [E542K]
[14] = molecular target: Serine/threonine-protein kinase N2 (Homo sapiens) (UniProt Q16513)
[15] = molecular target: Fibroblast growth factor receptor 4 (Homo sapiens) (UniProt P22455)
[16] = molecular target: Calcium/calmodulin-dependent protein kinase type 1B (Homo sapiens) (UniProt Q6P2M8)
[17] = molecular target: Calcium/calmodulin-dependent protein kinase type IV (Homo sapiens) (UniProt Q16566)
[18] = molecular target: Casein kinase II subunit alpha' (Homo sapiens) (UniProt P19784)
[19] = system: Tyrosine-protein kinase ABL1 (Homo sapiens), P00519 [T315I]
[20] = molecular target: 5-hydroxytryptamine receptor 2B (Homo sapiens, UniProt P41595); settings: Compound concentration 10.0 uM
[21] = molecular target: Cyclin-dependent kinase 11B (Homo sapiens) (UniProt P21127)
[22] = molecular target: Interleukin-1 receptor-associated kinase 4 (Homo sapiens) (UniProt Q9NWZ3)
[23] = molecular target: Serine/threonine-protein kinase STK11 (Homo sapiens) (UniProt Q15831)
[24] = molecular target: Uncharacterized serine/threonine-protein kinase SBK3 (Homo sapiens) (UniProt P0C264)
[25] = system: Epidermal growth factor receptor (Homo sapiens), P00533 [G719C]
[26] = molecular target: Membrane-associated tyrosine- and threonine-specific cdc2-inhibitory kinase (Homo sapiens) (UniProt Q99640)
[27] = molecular target: 3-phosphoinositide-dependent protein kinase 1 (Homo sapiens) (UniProt O15530)
[28] = system: Proto-oncogene tyrosine-protein kinase receptor Ret (Homo sapiens), P07949 [V804M]
[29] = molecular target: Tyrosine-protein kinase Fyn (Homo sapiens) (UniProt P06241)
[30] = molecular target: Serine/threonine-protein kinase PAK 6 (Homo sapiens) (UniProt Q9NQU5)
[31] = molecular target: Serine/threonine-protein kinase RIO1 (Homo sapiens) (UniProt Q9BRS2)
[32] = molecular target: Serine/threonine-protein kinase PknB (Mycobacterium tuberculosis) (UniProt P9WI81)
[33] = molecular target: Atypical kinase COQ8B, mitochondrial (Homo sapiens) (UniProt Q96D53)
[34] = Compound concentration 1000.0 nM
[35] = Compound concentration 100.0 nM

Proto-oncogene tyrosine-protein kinase receptor Ret (Homo sapiens), P07949 [V804M], sequence (P07949 whole entry V804M): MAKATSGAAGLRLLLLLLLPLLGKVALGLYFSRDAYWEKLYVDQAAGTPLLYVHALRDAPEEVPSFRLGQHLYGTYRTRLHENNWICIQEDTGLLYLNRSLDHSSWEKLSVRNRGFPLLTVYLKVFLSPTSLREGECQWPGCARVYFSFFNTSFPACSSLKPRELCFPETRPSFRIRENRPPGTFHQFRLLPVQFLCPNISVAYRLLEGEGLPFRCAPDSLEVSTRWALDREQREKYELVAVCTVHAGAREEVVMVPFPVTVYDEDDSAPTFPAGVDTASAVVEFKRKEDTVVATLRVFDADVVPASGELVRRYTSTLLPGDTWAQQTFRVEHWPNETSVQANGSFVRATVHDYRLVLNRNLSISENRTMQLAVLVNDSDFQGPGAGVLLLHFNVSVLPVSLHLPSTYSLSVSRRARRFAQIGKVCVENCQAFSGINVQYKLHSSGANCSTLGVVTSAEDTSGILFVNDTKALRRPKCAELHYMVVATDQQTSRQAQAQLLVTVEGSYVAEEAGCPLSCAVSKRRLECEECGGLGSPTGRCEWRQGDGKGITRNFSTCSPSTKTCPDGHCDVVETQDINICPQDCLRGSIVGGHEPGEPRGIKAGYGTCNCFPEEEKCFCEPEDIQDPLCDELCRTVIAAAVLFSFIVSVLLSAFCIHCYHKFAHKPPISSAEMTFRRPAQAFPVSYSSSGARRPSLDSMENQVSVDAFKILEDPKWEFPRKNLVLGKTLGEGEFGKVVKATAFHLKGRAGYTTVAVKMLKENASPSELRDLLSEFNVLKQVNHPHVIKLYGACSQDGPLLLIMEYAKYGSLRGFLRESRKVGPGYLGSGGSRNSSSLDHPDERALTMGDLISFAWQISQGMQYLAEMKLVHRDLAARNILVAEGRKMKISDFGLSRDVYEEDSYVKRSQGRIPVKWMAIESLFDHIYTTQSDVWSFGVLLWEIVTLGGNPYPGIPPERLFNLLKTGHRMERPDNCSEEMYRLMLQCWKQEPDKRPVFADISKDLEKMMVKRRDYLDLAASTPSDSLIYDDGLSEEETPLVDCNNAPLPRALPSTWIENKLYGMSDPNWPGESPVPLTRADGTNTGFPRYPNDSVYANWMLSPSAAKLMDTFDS
Fibroblast growth factor receptor 4 (Homo sapiens), sequence (P22455 22-802 limits assumed): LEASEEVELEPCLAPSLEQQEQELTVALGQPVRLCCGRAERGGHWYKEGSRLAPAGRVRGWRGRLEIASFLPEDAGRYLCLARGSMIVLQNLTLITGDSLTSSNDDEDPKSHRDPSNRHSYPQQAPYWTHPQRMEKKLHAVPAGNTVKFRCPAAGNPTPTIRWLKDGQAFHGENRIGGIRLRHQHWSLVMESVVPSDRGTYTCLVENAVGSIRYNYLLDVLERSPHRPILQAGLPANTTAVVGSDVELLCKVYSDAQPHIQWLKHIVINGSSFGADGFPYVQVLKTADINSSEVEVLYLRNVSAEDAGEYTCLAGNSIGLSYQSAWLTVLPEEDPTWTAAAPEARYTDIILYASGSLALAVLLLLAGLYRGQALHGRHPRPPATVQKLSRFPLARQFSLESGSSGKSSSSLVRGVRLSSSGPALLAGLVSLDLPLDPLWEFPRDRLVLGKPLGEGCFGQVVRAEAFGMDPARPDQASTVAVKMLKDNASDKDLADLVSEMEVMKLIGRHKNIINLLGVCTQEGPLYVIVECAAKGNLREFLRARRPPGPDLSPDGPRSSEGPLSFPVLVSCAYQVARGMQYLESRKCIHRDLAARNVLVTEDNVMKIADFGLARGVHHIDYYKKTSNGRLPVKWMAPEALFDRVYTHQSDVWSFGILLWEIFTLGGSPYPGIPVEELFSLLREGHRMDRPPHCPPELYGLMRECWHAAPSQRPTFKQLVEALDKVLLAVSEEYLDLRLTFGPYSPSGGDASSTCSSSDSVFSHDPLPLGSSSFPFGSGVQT
5-hydroxytryptamine receptor 2B, sequence (P41595 whole entry): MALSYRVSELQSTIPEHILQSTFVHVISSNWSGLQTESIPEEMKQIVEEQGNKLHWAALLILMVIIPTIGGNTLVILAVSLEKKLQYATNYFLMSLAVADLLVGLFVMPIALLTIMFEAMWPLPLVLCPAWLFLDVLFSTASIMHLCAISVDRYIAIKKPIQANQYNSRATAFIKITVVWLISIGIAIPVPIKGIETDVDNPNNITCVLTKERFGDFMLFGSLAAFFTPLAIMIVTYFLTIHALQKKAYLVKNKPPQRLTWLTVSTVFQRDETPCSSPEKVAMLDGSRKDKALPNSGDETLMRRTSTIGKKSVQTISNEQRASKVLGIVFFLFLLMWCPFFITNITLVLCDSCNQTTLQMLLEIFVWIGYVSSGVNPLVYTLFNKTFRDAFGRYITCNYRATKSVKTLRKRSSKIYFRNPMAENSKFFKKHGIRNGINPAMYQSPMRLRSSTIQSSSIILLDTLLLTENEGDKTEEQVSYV
Phosphatidylinositol 4,5-bisphosphate 3-kinase catalytic subunit alpha isoform (Homo sapiens), P42336 [E545A], sequence (P42336 whole entry E545A, canonical isoform): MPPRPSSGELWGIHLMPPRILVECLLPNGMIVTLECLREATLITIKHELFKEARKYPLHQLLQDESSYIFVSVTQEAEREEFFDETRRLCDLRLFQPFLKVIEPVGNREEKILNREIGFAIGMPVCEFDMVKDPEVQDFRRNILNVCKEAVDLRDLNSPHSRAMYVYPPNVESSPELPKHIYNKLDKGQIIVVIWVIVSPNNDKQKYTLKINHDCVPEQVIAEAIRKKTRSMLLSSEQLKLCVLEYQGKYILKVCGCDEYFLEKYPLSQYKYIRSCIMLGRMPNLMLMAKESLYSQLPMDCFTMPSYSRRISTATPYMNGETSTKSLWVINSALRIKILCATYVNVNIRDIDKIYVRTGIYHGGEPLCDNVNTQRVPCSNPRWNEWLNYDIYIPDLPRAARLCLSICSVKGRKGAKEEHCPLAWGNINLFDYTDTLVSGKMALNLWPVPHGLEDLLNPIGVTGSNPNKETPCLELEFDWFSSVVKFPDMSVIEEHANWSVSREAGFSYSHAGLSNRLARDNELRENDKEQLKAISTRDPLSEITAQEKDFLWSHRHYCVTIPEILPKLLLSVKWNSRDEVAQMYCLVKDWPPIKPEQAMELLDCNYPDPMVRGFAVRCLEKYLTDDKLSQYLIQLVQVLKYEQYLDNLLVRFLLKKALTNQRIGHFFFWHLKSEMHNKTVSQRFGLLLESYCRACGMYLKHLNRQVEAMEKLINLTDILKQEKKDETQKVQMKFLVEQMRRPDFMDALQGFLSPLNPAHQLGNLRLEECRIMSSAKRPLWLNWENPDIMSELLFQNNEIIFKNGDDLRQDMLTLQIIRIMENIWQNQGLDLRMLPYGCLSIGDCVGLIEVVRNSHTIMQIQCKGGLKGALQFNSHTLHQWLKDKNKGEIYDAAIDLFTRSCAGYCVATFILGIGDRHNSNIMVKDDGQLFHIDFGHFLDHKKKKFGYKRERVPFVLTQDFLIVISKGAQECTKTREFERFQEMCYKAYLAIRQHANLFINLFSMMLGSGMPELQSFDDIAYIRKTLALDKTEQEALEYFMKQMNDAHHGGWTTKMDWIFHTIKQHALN
Serine/threonine-protein kinase PAK 6 (Homo sapiens), sequence (Q9NQU5 whole entry, looked up): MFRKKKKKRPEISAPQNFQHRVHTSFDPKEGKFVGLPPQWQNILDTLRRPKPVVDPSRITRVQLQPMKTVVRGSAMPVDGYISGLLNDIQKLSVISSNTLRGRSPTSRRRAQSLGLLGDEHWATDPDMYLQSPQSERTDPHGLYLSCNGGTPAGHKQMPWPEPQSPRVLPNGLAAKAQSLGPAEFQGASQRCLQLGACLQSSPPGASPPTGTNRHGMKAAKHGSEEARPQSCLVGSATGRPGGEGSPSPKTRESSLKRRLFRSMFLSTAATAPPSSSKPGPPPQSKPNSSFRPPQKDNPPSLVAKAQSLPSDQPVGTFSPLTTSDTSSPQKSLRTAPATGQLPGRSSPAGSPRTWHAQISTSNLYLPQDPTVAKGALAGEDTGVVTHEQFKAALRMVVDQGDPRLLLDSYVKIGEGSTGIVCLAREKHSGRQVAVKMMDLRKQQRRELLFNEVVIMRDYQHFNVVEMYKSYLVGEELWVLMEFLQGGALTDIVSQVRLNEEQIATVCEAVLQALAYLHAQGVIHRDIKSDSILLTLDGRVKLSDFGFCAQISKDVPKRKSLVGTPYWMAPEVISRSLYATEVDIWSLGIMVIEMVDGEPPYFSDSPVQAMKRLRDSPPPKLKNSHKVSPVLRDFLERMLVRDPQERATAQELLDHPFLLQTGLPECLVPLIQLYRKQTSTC
Cyclin-dependent kinase 11B (Homo sapiens), sequence (P21127 whole entry): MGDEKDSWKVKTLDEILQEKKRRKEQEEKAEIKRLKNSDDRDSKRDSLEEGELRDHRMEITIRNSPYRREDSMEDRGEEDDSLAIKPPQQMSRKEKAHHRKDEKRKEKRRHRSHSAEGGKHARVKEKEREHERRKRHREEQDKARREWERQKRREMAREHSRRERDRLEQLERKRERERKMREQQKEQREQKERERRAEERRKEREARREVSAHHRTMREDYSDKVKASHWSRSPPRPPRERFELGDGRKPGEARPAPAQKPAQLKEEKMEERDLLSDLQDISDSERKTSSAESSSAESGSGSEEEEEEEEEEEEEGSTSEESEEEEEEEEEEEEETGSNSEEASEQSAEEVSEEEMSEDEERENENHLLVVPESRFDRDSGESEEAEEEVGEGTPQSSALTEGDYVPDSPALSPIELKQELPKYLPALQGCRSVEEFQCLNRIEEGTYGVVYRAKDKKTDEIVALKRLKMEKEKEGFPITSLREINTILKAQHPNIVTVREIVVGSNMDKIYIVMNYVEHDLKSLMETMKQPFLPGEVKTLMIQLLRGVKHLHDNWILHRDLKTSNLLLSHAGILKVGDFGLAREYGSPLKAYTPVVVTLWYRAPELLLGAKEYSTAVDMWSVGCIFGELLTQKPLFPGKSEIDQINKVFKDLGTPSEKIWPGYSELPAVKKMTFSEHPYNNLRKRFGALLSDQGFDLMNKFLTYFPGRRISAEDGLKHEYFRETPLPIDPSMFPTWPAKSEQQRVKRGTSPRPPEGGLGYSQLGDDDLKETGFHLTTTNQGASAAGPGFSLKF

C[C@@H]1CN(c2cc(-c3nn(C)c4ccc(OC5(C)CC5)cc34)ncn2)C[C@H](C)O1 [MLi-2-NC]
inactive: residual activity [1, 34] 100% | residual activity [2, 34] 100% | residual activity [3, 34] 97% | residual activity [4, 34] 100% | residual activity [5, 34] 97% | residual activity [6, 34] 72% | residual activity [7, 34] 90% | residual activity [8, 34] 100% | residual activity [9, 34] 78% | residual activity [10, 34] 100% | residual activity [11, 34] 80% | residual activity [12, 34] 100% | residual activity [14, 34] 100% | residual activity [15, 34] 100% | residual activity [16, 34] 100% | residual activity [17, 34] 67% | residual activity [18, 34] 86% | residual activity [19, 34] 73% | inhibition [20] 26.7% | residual activity [21, 34] 88% | residual activity [22, 34] 76% | residual activity [23, 34] 94% | residual activity [24, 34] 100% | residual activity [25, 34] 76% | residual activity [26, 34] 100% | residual activity [27, 34] 100% | residual activity [28, 34] 100% | residual activity [29, 34] 98% | residual activity [30, 34] 100% | residual activity [31, 34] 89% | residual activity [32, 34] 100% | residual activity [33, 34] 100%
active: residual activity [13, 34] 32%

C[C@@H]1CN(c2cc(-c3n[nH]c4ccc(OC5(C)CC5)cc34)ncn2)C[C@H](C)O1 [MLi-2]
inactive: residual activity [1, 35] 86% | residual activity [2, 35] 92% | residual activity [3, 35] 91% | residual activity [4, 35] 95% | residual activity [5, 35] 73% | residual activity [6, 35] 98% | residual activity [7, 35] 100% | residual activity [8, 35] 100% | residual activity [9, 35] 100% | residual activity [10, 35] 76% | residual activity [11, 35] 66% | residual activity [12, 35] 100% | residual activity [13, 35] 81% | residual activity [14, 35] 89% | residual activity [15, 35] 100% | residual activity [16, 35] 67% | residual activity [17, 35] 78% | residual activity [18, 35] 100% | residual activity [19, 35] 72% | inhibition [20] 41.4% | residual activity [21, 35] 88% | residual activity [22, 35] 90% | residual activity [23, 35] 83% | residual activity [24, 35] 100% | residual activity [25, 35] 63% | residual activity [26, 35] 96% | residual activity [27, 35] 78% | residual activity [28, 35] 97% | residual activity [29, 35] 100% | residual activity [30, 35] 100% | residual activity [31, 35] 100% | residual activity [32, 35] 95% | residual activity [33, 35] 72%
